According to the NIST ThermoML archive (doi:10.1016/j.jct.2008.07.009):
± gives the expanded uncertainty stated by the source.

Settings: 101.33 kPa, Liquid, Vibrating tube method

Structure (SMILES) | mass density (293.15 K) | mass density (303.15 K) | mass density (313.15 K) | mass density (323.15 K) | mass density (333.15 K) | mass density (343.15 K)
CC(=O)N1CCOCC1 [4-acetylmorpholine] | 1113.8 ± 6.1 kg/m3 | 1105.9 ± 6.1 kg/m3 | 1097.3 ± 6.1 kg/m3 | 1088.7 ± 6.1 kg/m3 | 1080.1 ± 6.1 kg/m3 | 1071.5 ± 6.1 kg/m3
Cc1ccccc1 [toluene] | 866.8 ± 6 kg/m3 | 857.5 ± 6 kg/m3 | 848.8 ± 6 kg/m3 | 838.9 ± 6 kg/m3 | 829.6 ± 6 kg/m3 | 820.2 ± 6 kg/m3
Cc1cc(C)cc(C)c1 [1,3,5-trimethylbenzene] | 865.1 ± 6 kg/m3 | 856.9 ± 6 kg/m3 | 842.8 ± 6 kg/m3 | 834.7 ± 6 kg/m3 | 826.6 ± 6 kg/m3 | 818.5 ± 6 kg/m3
c1ccccc1 [benzene] | 878.9 ± 6 kg/m3 | 868.2 ± 6 kg/m3 | 857.4 ± 6 kg/m3 | 846.5 ± 6 kg/m3 | 835.7 ± 6 kg/m3 | 824.7 ± 6 kg/m3
CCc1ccccc1 [ethylbenzene] | 867.2 ± 6 kg/m3 | 858.3 ± 6 kg/m3 | 849.3 ± 6 kg/m3 | 840.3 ± 6 kg/m3 | 831.2 ± 6 kg/m3 | 822.1 ± 6 kg/m3
